Assay results reported in US20230226227A1, “PROSTATE SPECIFIC MEMBRANE ANTIGEN (PSMA) LIGANDS AND USES THEREOF” (ADVANCED ACCELERATOR APPLICATIONS (ITALY) SRL, priority 2019, published 2023).

Assays:
[1] = Plasma protein binding by ultrafiltration, mouse plasma; format: in vitro ADME
Description: Plasma protein binding of PSMA-R2 and ^175Lu-PSMA-R2 has been determined by ultrafiltration method, after incubation of the compounds in human, mouse, rat and minipig plasma at two different concentrations: 1 and 5 µg/mL.

[2] = Effect on respiration in the unrestrained conscious rat (whole-body plethysmography); format: in vivo; conditions: single iv 0.2, 0.6, 2 mg/kg; over 4 hours post-injection
Description: The aim of this study was to assess the possible effects of 0.2, 0.6 and 2.0 mg/kg ^175LuPSMA-R2 on respiratory function of conscious rats via a whole-body plethysmography method after intravenous administration according to the study design detailed in Table 3.
Inspiratory time, expiratory time, peak inspiratory flow, peak expiratory flow, tidal volume, relaxation time, minute volume, respiratory rate and enhanced pause were continuously recorded from approximately 1 hour before dosing up to 4 hours after dosing. Respiratory […] parameters were reported pre-dose and at 5, 15 and 30 minutes and 1, 1.5, 2, 3 and 4 hours after dosing. Clinical signs were recorded on the day of dosing.

[3] = Repeated dose (2 weeks) toxicity and toxicokinetic study in the rat
Description: The purpose of this study was to investigate the toxicity of ^175Lu-PSMA-R2 in rats after daily intravenous administration for 2 weeks and recovery from any treatment related effects during a 2-week recovery period (main groups).
The tested doses were 0.13, 0.39 and 1.29 mg/kg/day, that is about 31, 93 and 310 times the PSMA-R2 anticipated human dose.
Each main treatment group consisted of 10 male and 10 female rats. There were additional 5 male and 5 females included to be sacrificed after 2 weeks of recovery in groups 1 and 4. Two satellite groups (low and mid- dose) for toxicokinetics had 9 male and 9 female animals and one group (high dose) included 12 male and 12 female animals. One additional group (control) comprised 3 male and 3 female animals.
In this study, the toxicity and the toxicokinetic profile of ^175Lu-PSMA-R2 were investigated in Sprague Dawley rats after daily intravenous administration for 2 weeks at the dosages of 0.13, 0.39 and 1.29 mg/kg/day.

Compound: O=C(O)CCC(NC(=O)NC(CCCCN(Cc1ccc(Br)cc1)C(=O)CCCCCNC(=O)CN1CCN(CC(=O)O)CCN(CC(=O)O)CCN(CC(=O)O)CC1)C(=O)O)C(=O)O.[175Lu] (stereo not shown) [^175Lu-PSMA-R2]
- fu (%) fraction unbound ([1]; 1 µg/mL): 71.1 ± 4.4%
- fu (%) fraction unbound ([1]; 5 µg/mL): 71.0 ± 2.2%
- Changes in respiratory parameters [2]: No changes of toxicological significance were observed in respiratory parameters recorded over 4 hours post-injection.
- Accumulation after daily administration ([3]; Day 1 to Day 14): No accumulation
- Half-life ([3]; both sexes and all dose levels): 24 to 48 min
- NOAEL (No Observed Adverse Effect Level) ([3]; daily iv for 2 weeks): 1.29 mg/kg/day
- Toxic / treatment-related effects in treated groups compared to controls ([3]; daily iv for 2 weeks): No evidence of treatment-related effects
- Bodyweight and food consumption ([3]; rat, in vivo): unaffected by treatment
- Clearance, dose dependence ([3]; rat, in vivo): dose-independent
- Clinical pathology examination ([3]; rat, in vivo): No findings of toxicological relevance
- Daily clinical observation ([3]; rat, in vivo): No signs of toxicological significance
- Dose proportionality of exposure ([3]; rat, in vivo): approximately dose proportional
- NOAEL as multiple of the foreseen human dose ([3]; rat, in vivo): 310 times
- Necropsy, organ weights or histopathological examination ([3]; rat, in vivo): No evidence of treatment-related effects
- Ophthalmoscopy examination ([3]; rat, in vivo): No anomalies related to treatment
- Toxic / treatment-related effects in treated groups compared to controls ([3]; rat, in vivo, iv): no toxic effects
